# According to PubChem BioAssay AID2060905 (Molecular Pharmacology Branch, DTP, NCI, 2025):
# Tested on: 282377-053-R-J1-PDC complex spheroid viability
# Assay: Anticancer human tumor 282377-053-R-J1-PDC patient-derived colon adenocarcinoma cell line growth inhibition [RAS]
# Settings: for IC50: curve of first compound; for viability, T/C: stronger effect = lower value
# How it was run: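 Agents were tested in combination matrices in half-log decrements from a top concentration at or near clinical Cmax (10 microM if undetermined). Targets were multi-cell spheroids of tumour lines plus HUVEC and MSC stromal cells.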
# [1] = second compound 0.0316 µM, first compound 0.0316 µM
# [2] = second compound 0.0316 µM, first compound 0.1 µM
# [3] = second compound 0.0316 µM, first compound 0.316 µM
# [4] = second compound 0.0316 µM, first compound 1 µM
# [5] = second compound 0.1 µM, first compound 0.0316 µM
# [6] = second compound 0.1 µM, first compound 0.1 µM
# [7] = second compound 0.1 µM, first compound 0.316 µM
# [8] = second compound 0.1 µM, first compound 1 µM
# [9] = second compound 0.316 µM, first compound 0.0316 µM
# [10] = second compound 0.316 µM, first compound 0.1 µM
# [11] = second compound 0.316 µM, first compound 0.316 µM
# [12] = second compound 0.316 µM, first compound 1 µM
# [13] = second compound 1 µM, first compound 0.0316 µM
# [14] = second compound 1 µM, first compound 0.1 µM
# [15] = second compound 1 µM, first compound 0.316 µM
# [16] = second compound 1 µM, first compound 1 µM
# [17] = second compound 3.16 µM, first compound 0.0316 µM
# [18] = second compound 3.16 µM, first compound 0.1 µM
# [19] = second compound 3.16 µM, first compound 0.316 µM
# [20] = second compound 3.16 µM, first compound 1 µM
# [21] = second compound 10 µM, first compound 0.0316 µM
# [22] = second compound 10 µM, first compound 0.1 µM
# [23] = second compound 10 µM, first compound 0.316 µM
# [24] = second compound 10 µM, first compound 1 µM
# 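Further: spheroids exposed to agents for seven days before readout.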
# 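Wherever viability, T/C is given: luminescence viability as percent of DMSO vehicle control wells.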
structure (smiles),measurement,setting,value
C=CC(=O)N1CCN(c2nc(OCC3CCCN3C)nc3c(F)c(-c4nc(N)cc(C)c4C(F)(F)F)c(Cl)cc23)C(C)C1 (stereo unspecified) + C#Cc1c(F)ccc2cc(O)cc(-c3ncc4c(N5CC6CCC(C5)N6)nc(OCC56CCCN5CC(F)C6)nc4c3F)c12,IC50,second compound 0.0316 µM,> 1000 nM
same,IC50,second compound 0.1 µM,> 1000 nM
same,IC50,second compound 0.316 µM,> 1000 nM
same,IC50,second compound 1 µM,> 1000 nM
same,IC50,second compound 3.16 µM,> 1000 nM
same,IC50,second compound 10 µM,> 1000 nM
same,"viability, T/C","second compound 0.0316 µM, first compound 0.00316 µM",111%
same,"viability, T/C","second compound 0.0316 µM, first compound 0.01 µM",128%
same,"viability, T/C",[1],132%
same,"viability, T/C",[2],108%
same,"viability, T/C",[3],107%
same,"viability, T/C",[4],123%
same,"viability, T/C","second compound 0.1 µM, first compound 0.00316 µM",98.7%
same,"viability, T/C","second compound 0.1 µM, first compound 0.01 µM",96.9%
same,"viability, T/C",[5],97.2%
same,"viability, T/C",[6],96.4%
same,"viability, T/C",[7],91.6%
same,"viability, T/C",[8],84.4%
same,"viability, T/C","second compound 0.316 µM, first compound 0.00316 µM",106%
same,"viability, T/C","second compound 0.316 µM, first compound 0.01 µM",105%
same,"viability, T/C",[9],91%
same,"viability, T/C",[10],99.5%
same,"viability, T/C",[11],96.7%
same,"viability, T/C",[12],104%
same,"viability, T/C","second compound 1 µM, first compound 0.00316 µM",99.6%
same,"viability, T/C","second compound 1 µM, first compound 0.01 µM",90.9%
same,"viability, T/C",[13],92.8%
same,"viability, T/C",[14],90.6%
same,"viability, T/C",[15],118%
same,"viability, T/C",[16],97.5%
same,"viability, T/C","second compound 3.16 µM, first compound 0.00316 µM",91.1%
same,"viability, T/C","second compound 3.16 µM, first compound 0.01 µM",109%
same,"viability, T/C",[17],107%
same,"viability, T/C",[18],98.6%
same,"viability, T/C",[19],108%
same,"viability, T/C",[20],123%
same,"viability, T/C","second compound 10 µM, first compound 0.00316 µM",100%
same,"viability, T/C","second compound 10 µM, first compound 0.01 µM",112%
same,"viability, T/C",[21],116%
same,"viability, T/C",[22],102%
same,"viability, T/C",[23],85.1%
same,"viability, T/C",[24],107%
CC(=O)OC12COC1CC(O)C1(C)C(=O)C(O)C3=C(C)C(OC(=O)C(O)C(NC(=O)OC(C)(C)C)c4ccccc4)CC(O)(C(OC(=O)c4ccccc4)C21)C3(C)C (stereo unspecified) + C#Cc1c(F)ccc2cc(O)cc(-c3ncc4c(N5CC6CCC(C5)N6)nc(OCC56CCCN5CC(F)C6)nc4c3F)c12,IC50,second compound 0.0316 µM,< 31.6 nM
same,IC50,second compound 0.1 µM,< 31.6 nM
same,IC50,second compound 0.316 µM,< 31.6 nM
same,IC50,second compound 1 µM,< 31.6 nM
same,IC50,second compound 3.16 µM,< 31.6 nM
same,IC50,second compound 10 µM,< 31.6 nM
same,"viability, T/C",[1],21.9%
same,"viability, T/C",[2],20.5%
same,"viability, T/C",[3],23.9%
same,"viability, T/C",[4],29.7%
same,"viability, T/C","second compound 0.0316 µM, first compound 3.16 µM",43.1%
same,"viability, T/C","second compound 0.0316 µM, first compound 10 µM",52.1%
same,"viability, T/C",[5],25.4%
same,"viability, T/C",[6],23.1%
same,"viability, T/C",[7],23.4%
same,"viability, T/C",[8],28.7%
same,"viability, T/C","second compound 0.1 µM, first compound 3.16 µM",49.8%
same,"viability, T/C","second compound 0.1 µM, first compound 10 µM",69.4%
same,"viability, T/C",[9],28.6%
same,"viability, T/C",[10],24.7%
same,"viability, T/C",[11],26.7%
same,"viability, T/C",[12],30.2%
same,"viability, T/C","second compound 0.316 µM, first compound 3.16 µM",47.4%
same,"viability, T/C","second compound 0.316 µM, first compound 10 µM",67.2%
same,"viability, T/C",[13],32.6%
same,"viability, T/C",[14],25%
same,"viability, T/C",[15],26.6%
same,"viability, T/C",[16],33%
same,"viability, T/C","second compound 1 µM, first compound 3.16 µM",60.6%
same,"viability, T/C","second compound 1 µM, first compound 10 µM",61.5%
same,"viability, T/C",[17],27.9%
same,"viability, T/C",[18],29.2%
same,"viability, T/C",[19],31.4%
same,"viability, T/C",[20],39.6%
same,"viability, T/C","second compound 3.16 µM, first compound 3.16 µM",58.5%
same,"viability, T/C","second compound 3.16 µM, first compound 10 µM",66%
same,"viability, T/C",[21],32.1%
same,"viability, T/C",[22],31.8%
same,"viability, T/C",[23],41.6%
same,"viability, T/C",[24],49.3%
same,"viability, T/C","second compound 10 µM, first compound 3.16 µM",77.7%
same,"viability, T/C","second compound 10 µM, first compound 10 µM",78.7%
CCc1c2c(nc3ccc(O)cc13)-c1cc3c(c(=O)n1C2)COC(=O)[C@]3(O)CC + C#Cc1c(F)ccc2cc(O)cc(-c3ncc4c(N5CC6CCC(C5)N6)nc(OCC56CCCN5CC(F)C6)nc4c3F)c12,IC50,second compound 0.0316 µM,> 300 nM
same,IC50,second compound 0.1 µM,> 300 nM
same,IC50,second compound 0.316 µM,> 300 nM
same,IC50,second compound 1 µM,> 300 nM
same,IC50,second compound 3.16 µM,> 300 nM
same,IC50,second compound 10 µM,> 300 nM
same,"viability, T/C","second compound 0.0316 µM, first compound 0.000949 µM",97%
same,"viability, T/C","second compound 0.0316 µM, first compound 0.003 µM",131%
same,"viability, T/C","second compound 0.0316 µM, first compound 0.00949 µM",120%
same,"viability, T/C","second compound 0.0316 µM, first compound 0.03 µM",96.8%
same,"viability, T/C","second compound 0.0316 µM, first compound 0.0949 µM",88.2%
same,"viability, T/C","second compound 0.0316 µM, first compound 0.3 µM",53%
same,"viability, T/C","second compound 0.1 µM, first compound 0.000949 µM",113%
same,"viability, T/C","second compound 0.1 µM, first compound 0.003 µM",122%
same,"viability, T/C","second compound 0.1 µM, first compound 0.00949 µM",130%
same,"viability, T/C","second compound 0.1 µM, first compound 0.03 µM",95.8%
same,"viability, T/C","second compound 0.1 µM, first compound 0.0949 µM",84.5%
same,"viability, T/C","second compound 0.1 µM, first compound 0.3 µM",61.4%
same,"viability, T/C","second compound 0.316 µM, first compound 0.000949 µM",117%
same,"viability, T/C","second compound 0.316 µM, first compound 0.003 µM",128%
same,"viability, T/C","second compound 0.316 µM, first compound 0.00949 µM",109%
same,"viability, T/C","second compound 0.316 µM, first compound 0.03 µM",101%
same,"viability, T/C","second compound 0.316 µM, first compound 0.0949 µM",85.6%
same,"viability, T/C","second compound 0.316 µM, first compound 0.3 µM",55.6%
same,"viability, T/C","second compound 1 µM, first compound 0.000949 µM",108%
same,"viability, T/C","second compound 1 µM, first compound 0.003 µM",104%
same,"viability, T/C","second compound 1 µM, first compound 0.00949 µM",113%
same,"viability, T/C","second compound 1 µM, first compound 0.03 µM",95.3%
same,"viability, T/C","second compound 1 µM, first compound 0.0949 µM",80.1%
same,"viability, T/C","second compound 1 µM, first compound 0.3 µM",61%
same,"viability, T/C","second compound 3.16 µM, first compound 0.000949 µM",115%
same,"viability, T/C","second compound 3.16 µM, first compound 0.003 µM",127%
same,"viability, T/C","second compound 3.16 µM, first compound 0.00949 µM",125%
same,"viability, T/C","second compound 3.16 µM, first compound 0.03 µM",100%
same,"viability, T/C","second compound 3.16 µM, first compound 0.0949 µM",97.5%
same,"viability, T/C","second compound 3.16 µM, first compound 0.3 µM",66.3%
same,"viability, T/C","second compound 10 µM, first compound 0.000949 µM",97.1%
same,"viability, T/C","second compound 10 µM, first compound 0.003 µM",112%
same,"viability, T/C","second compound 10 µM, first compound 0.00949 µM",116%
same,"viability, T/C","second compound 10 µM, first compound 0.03 µM",102%
same,"viability, T/C","second compound 10 µM, first compound 0.0949 µM",87.9%
same,"viability, T/C","second compound 10 µM, first compound 0.3 µM",63.5%
